According to US20250091911A1, “NANOFILTRATION SYSTEM AND METHOD INCLUDING PRETREATMENT WITH GREEN SORPTION MEDIA” (University of Central Florida Research Foundation, Inc., priority 2023, published 2025):

Experiments:
[1] = Crossflow nanofiltration of CPS-pretreated water; details: for PFAS concentration, membrane permeates (MP): CPS-nanofiltration @ 9 h
Procedure: (§1) The water samples were collected from the same site of the C-23 canal during both the dry and wet seasons. However, only wet season water samples were used in the experiment. The water samples were analyzed for both long-chain (PFOA and PFOS) and short-chain (Perfluorobutanoic acid [PFBA] and Perfluorobutanesulfonic acid [PFBS]) PFAS following the modified EPA 537.1 method (Shoemaker & Tettenhorst, 2020). Through this method, an aliquot of a 250 mL water sample containing analytes and internal standards is extracted via solid phase extraction. The extracted analytes and internal standards are then eluted with methanol and ammonium hydroxide in methanol solvent. Then the eluted samples are dried with nitrogen and reconstituted to 1 mL volume with a buffer solution. The samples are then injected into a C18 liquid chromatography column, and the PFAS compounds are separated by a gradient of pure methanol and 20 mM ammonium acetate. Finally, the eluted compounds are detected, and their concentrations are measured via tandem mass spectrometry. The method detection limits (MDLs) for PFBA, PFBS, PFOA, and PFOS were 0.5 ng·L^−1, 2 ng·L^−1, 0.5 ng·L^−1, and 1 ng·L^−1, respectively. The concentration of calcium ion (Ca^2+) was analyzed at Eurofins Flowers's Chemical Laboratories (Altamonte Springs, Florida) following EPA method 6010D using inductively coupled plasma optical emission spectroscopy (MDL=0.096 mg·L^−1). Total organic carbon (TOC) and dissolved organic carbon (DOC) were measured using a TOC analyzer following EPA method 415.3.
(§2) A commercially available nanofiltration membrane (membrane ID: XN45) was used for the crossflow nanofiltration experiment. The membranes were acquired as flat sheets and cut into coupons of required sizes (active surface area of 42 cm^2) to fit into a membrane cell (CF042).
(§3) A bench-scale crossflow filtration setup was used in these experimental methods. The experimental setup consisted of a feed tank, a centrifugal pump, three CF042 membrane cells connected to pressure gauges, check valves, and flowmeters. A recirculating chiller was used for regulating the temperature at 20° C. Three high-precision balances were used to measure the weight of the collected permeate and to calculate the flowrates. The scales were connected to a computer for data acquisition.
(§4) Before each experimental run, the membrane cells and tubing were cleaned by running DI water as feed without placing any membrane coupons inside the cells. Then the membrane coupons were mounted into the cells firmly and compacted at 100 psi for at least 4 h using DI water. After that, 5 L of the effluents from the pretreatment media (i.e., the C-23 water samples that were run through the CPS and ZIPGEM) were taken as feedwater for each nanofiltration filtration experiment. The experiments were run for 24 h before collecting permeates and feed samples for analysis. The experiments were conducted at a constant flowrate of 1.0 L·min^−1, with a corresponding cross flow velocity of 0.18 m·s^−1. The transmembrane pressure was initially set to 110 psi at the beginning of the permeate collection by regulating inlet and retentate valves. However, the pressure changed over time as feed concentration increased during the permeate collection. The experiment was run in total recirculation mode, whereby both the retentate and permeate were recycled, except the time of permeate collection.
(§5) The average removal efficiencies of each media pretreatment were calculated based on PFAS concentrations in the influents and effluents of triplicate columns, as disclosed in TABLE 5. […] The overall efficiency of the hybrid treatment was calculated by comparing the average concentrations of PFAS in the influents of the green sorption media pretreatment columns and the nanofiltration permeates, as disclosed in TABLE 6. […]

[2] = Crossflow nanofiltration of ZIPGEM-pretreated water; details: for PFAS concentration, membrane permeates (MP): ZIPGEM-nanofiltration @ 30 h
Procedure: as §1, §2, §3, §4, §5

[3] = Overall removal by CPS-nanofiltration water treatment system
Excerpt: (§6) Water samples collected from the C-23 canal were first fortified with PFOS and PFOA and then used as influents to the pretreatment column containing one of the two green sorption media. Note the water samples were not fortified with PFBA and PFBS. The green sorption media effluent served as the feedwater for the nanofiltration unit of the proposed water treatment system. The nanofiltration membrane unit without any green sorption media-based pretreatment served as the “control.” The integration of a green sorption media (CPS or ZIPGEM) with crossflow nanofiltration is herein referred to as a water treatment system, denoted as CPS-nanofiltration or ZIPGEM-nanofiltration. The CPS and ZIPGEM column influents and effluents and nanofiltration permeates were analyzed for both long-chain (PFOS and PFOA) and short-chain (PFBS and PFBA) PFAS. FIG. 3 presents the green sorption media-nanofiltration hybrid treatment scheme.
The average removal efficiencies of each media pretreatment were calculated based on PFAS concentrations in the influents and effluents of triplicate columns, as disclosed in TABLE 5. […] The overall efficiency of the hybrid treatment was calculated by comparing the average concentrations of PFAS in the influents of the green sorption media pretreatment columns and the nanofiltration permeates, as disclosed in TABLE 6.
where C0 is the concentration of PFAS in the column influent or nanofiltration feed in ng·L^−1, and where Ce is the concentration of PFAS in the column effluent or nanofiltration permeate in ng·L^−1. TABLE 7 summarizes the key findings of the green sorption media-based pretreatment and green sorption media-nanofiltration treatment, and these are explained in the subsequent subsection through an in-depth discussion and statistical analysis. It should be noted that PFOS concentration was slightly higher in the membrane permeates compared to the effluent of green sorption media pretreatment media, as disclosed in TABLE 5. The slight increase in PFOS concentration could be attributed to the filtration experimental setup that operated in a total recirculation mode. However, most of the differences were very close to the MDL for PFOS (1 ng·L^−1), which was already undetected in the green sorption media effluent

[4] = Control: nanofiltration without green sorption media pretreatment
Procedure: as §1, §6
A bench-scale crossflow filtration setup was used in these experimental methods. The experimental setup consisted of a feed tank, a centrifugal pump, three CF042 membrane cells connected to pressure gauges, check valves, and flowmeters. A recirculating chiller was used for regulating the temperature at 20° C. […]

[5] = cited from earlier work
[6] = feed = ZIPGEM column 1 effluent
[7] = feed = ZIPGEM column 2 effluent
[8] = feed = ZIPGEM column 3 effluent

Structure (SMILES) | PFAS concentration, membrane permeates (MP) ([1]; Col 1) [ng/L] | PFAS concentration, membrane permeates (MP) ([1]; Col 2) [ng/L] | PFAS concentration, membrane permeates (MP) ([1]; Col 3) [ng/L] | nanofiltration membrane removal ([1]; feed = CPS column 1 effluent) [%] | nanofiltration membrane removal ([1]; feed = CPS column 2 effluent) [%] | nanofiltration membrane removal ([1]; feed = CPS column 3 effluent) [%] | PFAS concentration, membrane permeates (MP) ([2]; Col 1) [ng/L] | PFAS concentration, membrane permeates (MP) ([2]; Col 2) [ng/L] | PFAS concentration, membrane permeates (MP) ([2]; Col 3) [ng/L] | nanofiltration membrane removal [2, 6] [%] | nanofiltration membrane removal [2, 7] [%] | nanofiltration membrane removal [2, 8] [%] | O = overall removal by water treatment system ([3]; column 1) [%] | O = overall removal by water treatment system ([3]; column 2) [%] | O = overall removal by water treatment system ([3]; column 3) [%] | % Removal by Control, O [4] [%] | pKa [5]
O=C(O)C(F)(F)C(F)(F)C(F)(F)F [PFBA, Perfluorobutanoic acid] | 3.20 | 4.17 | 3.60 | 47 | 28 | 33 | 4.43 | 4.77 | 4.70 | 37 | 32 | 36 | 58 | 45 | 53 | 67 | 0.40
O=S(=O)(O)C(F)(F)C(F)(F)C(F)(F)C(F)(F)F [PFBS, Perfluorobutanesulfonic acid] | 3.27 | 3.40 | 2.67 | 26 | 15 | 35 | 4.67 | 4.23 | 5.10 | 23 | 32 | 36 | 41 | 38 | 52 | 44 | 0.14
O=C(O)C(F)(F)C(F)(F)C(F)(F)C(F)(F)C(F)(F)C(F)(F)C(F)(F)F [PFOA, Perfluorooctanoic acid] | 2.27 | 5.83 | 2.43 | 40 | 58 | 78 | 21.67 | 14.00 | 23.67 | 66 | 78 | 68 | 98 | 94 | 97 | 82 | −0.20
O=S(=O)(O)C(F)(F)C(F)(F)C(F)(F)C(F)(F)C(F)(F)C(F)(F)C(F)(F)C(F)(F)F [PFOS, Perfluorooctanesulfonic acid] | 2.0 | 1.90 | 0.74 | 100 | 100 | 100 | 1.70 | 0.79 | 1.05 | 100 | 100 | 100 | 100 | 100 | 100 | 84 | 0.14
